Measured values published in the supplement of paper PMC8617591.

Assays:
[1] = system: Mycobacterium tuberculosis Erdman (autoluminescent); assay: FIC90 (Loewe) at 90% inhibition (log2); higher = more antagonistic
Method: (§1)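 DiaMOND equipotent two-drug combination dose responses against autoluminescent M. tuberculosis Erdman in 8 in vitro models. Read-out is OD600, or luminescence for the intracellular and dormancy models, normalised to untreated wells. Hill-fit Einf, AUC25 and GRinf are potency metrics; FIC50 and FIC90 are Loewe-additivity fractional inhibitory concentrations, given as log2 (negative = synergy). Replicates are averaged.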

[2] = system: Mycobacterium tuberculosis Erdman (autoluminescent); assay: AUC25, normalised area under dose response up to IC25 (fraction (0-1)); higher = more potent at low dose
Method: as §1

[3] = system: Mycobacterium tuberculosis Erdman (autoluminescent); assay: Einf, fitted maximum growth inhibition of combination (fraction); higher = stronger maximal inhibition
Method: as §1

[4] = system: Mycobacterium tuberculosis Erdman (autoluminescent); assay: FIC50 (Loewe) at 50% inhibition (log2); higher = more antagonistic
Method: as §1

[5] = system: Mycobacterium tuberculosis Erdman (autoluminescent); assay: GRinf, maximum normalised growth rate inhibition (unitless (-1 to 1)); higher = less effect (negative = killing)
Method: as §1

NNC(=O)c1ccncc1 [isoniazid] + COc1c(N2C[C@@H]3CCCN[C@@H]3C2)c(F)cc2c(=O)c(C(=O)O)cn(C3CC3)c12 [moxifloxacin]
Conditions	AUC25, [2]	Einf, [3]	FIC50, [4]	FIC90, [1]	GRinf, [5]
in vitro model: acidic pH 5.7, time point: constant (~7 days, model-specific)	0.108	0.704	0.476	–	-0.263
in vitro model: acidic pH 5.7, time point: terminal (~4-5 doublings, model-specific)	0.0673	0.923	0.361	0.444	-0.118
in vitro model: intracellular J774, time point: constant = terminal	–	0.993	–	0.465	-0.405

Conditions	AUC25, [2]	Einf, [3]	FIC50, [4]	FIC90, [1]	GRinf, [5]
in vitro model: butyrate, time point: constant (~7 days, model-specific)	0.0638	0.926	0.0921	0.134	-0.0481
in vitro model: butyrate, time point: terminal (~4-5 doublings, model-specific)	0.0457	0.969	0.0505	-0.0232	-0.0694
in vitro model: cholesterol 0.05 mM, time point: constant (~7 days, model-specific)	0.121	0.756	0.0749	–	-0.309
in vitro model: cholesterol 0.05 mM, time point: terminal (~4-5 doublings, model-specific)	0.096	0.962	0.0269	0.468	-0.301
in vitro model: cholesterol-high 0.2 mM, time point: constant (~7 days, model-specific)	0.079	0.953	0.049	0.277	-0.524
in vitro model: cholesterol-high 0.2 mM, time point: terminal (~4-5 doublings, model-specific)	0.057	0.995	0.314	0.00349	-0.639
in vitro model: dormancy (butyrate + nitrate, low O2), time point: constant (~7 days, model-specific)	0.076	0.91	0.000113	-0.385	0.143
in vitro model: dormancy (butyrate + nitrate, low O2), time point: terminal (~4-5 doublings, model-specific)	0.0785	0.985	0.0985	0.553	-0.158
in vitro model: standard 7H9 glycerol, time point: constant = terminal	0.0762	0.981	0.317	0.332	-0.218
in vitro model: valerate, time point: constant (~7 days, model-specific)	0.0691	0.863	0.215	–	0.0468
in vitro model: valerate, time point: terminal (~4-5 doublings, model-specific)	0.0467	0.94	0.279	0.294	0.0344

CC(=O)NC[C@H]1CN(c2ccc(N3CCOCC3)c(F)c2)C(=O)O1 [linezolid] + NC(=O)c1cnccn1 [pyrazinamide]
Conditions	AUC25, [2]	Einf, [3]	FIC50, [4]	FIC90, [1]	GRinf, [5]
in vitro model: acidic pH 5.7, time point: constant (~7 days, model-specific)	0.0815	0.856	0.463	–	-0.176
in vitro model: acidic pH 5.7, time point: terminal (~4-5 doublings, model-specific)	0.0982	0.985	0.393	-1.67	-0.358
in vitro model: intracellular J774, time point: constant = terminal	–	0.948	–	0.0529	-0.235

Conditions	AUC25, [2]	Einf, [3]	FIC50, [4]	FIC90, [1]	GRinf, [5]
in vitro model: butyrate, time point: constant (~7 days, model-specific)	0.119	0.897	-0.211	1.73	0.0498
in vitro model: butyrate, time point: terminal (~4-5 doublings, model-specific)	0.0989	0.95	-0.152	0.565	0.0146
in vitro model: cholesterol 0.05 mM, time point: constant (~7 days, model-specific)	0.142	0.724	–	–	-0.126
in vitro model: cholesterol 0.05 mM, time point: terminal (~4-5 doublings, model-specific)	0.141	0.95	0.09	–	-0.256
in vitro model: cholesterol-high 0.2 mM, time point: constant (~7 days, model-specific)	0.114	0.957	0.0387	–	-0.407
in vitro model: cholesterol-high 0.2 mM, time point: terminal (~4-5 doublings, model-specific)	0.115	0.999	0.0483	0.383	-0.83
in vitro model: dormancy (butyrate + nitrate, low O2), time point: constant (~7 days, model-specific)	0.0601	0.878	0.507	0.733	0.236
in vitro model: dormancy (butyrate + nitrate, low O2), time point: terminal (~4-5 doublings, model-specific)	0.0422	0.823	0.0853	1.09	0.182
in vitro model: standard 7H9 glycerol, time point: constant = terminal	0.0807	0.939	0.336	–	-0.0617
in vitro model: valerate, time point: constant (~7 days, model-specific)	0.0877	0.798	-0.432	–	0.131
in vitro model: valerate, time point: terminal (~4-5 doublings, model-specific)	0.0556	0.892	-0.271	1.25	0.137

CC(C)/N=c1\cc2n(-c3ccc(Cl)cc3)c3ccccc3nc-2cc1Nc1ccc(Cl)cc1 [clofazimine] + CO[C@H]1/C=C/O[C@@]2(C)Oc3c(C)c(O)c4c(O)c(c(/C=N/N5CCN(C)CC5)c(O)c4c3C2=O)NC(=O)/C(C)=C\C=C\[C@H](C)[C@H](O)[C@@H](C)[C@@H](O)[C@@H](C)[C@H](OC(C)=O)[C@@H]1C [rifampicin]
Conditions	AUC25, [2]	Einf, [3]	FIC50, [4]	FIC90, [1]	GRinf, [5]
in vitro model: acidic pH 5.7, time point: constant (~7 days, model-specific)	0.0889	0.874	-0.0436	-1.95	-0.208
in vitro model: acidic pH 5.7, time point: terminal (~4-5 doublings, model-specific)	0.0797	0.986	0.0811	-0.172	-0.273
in vitro model: intracellular J774, time point: constant = terminal	–	0.967	–	0.0974	-0.265

Conditions	AUC25, [2]	Einf, [3]	FIC50, [4]	FIC90, [1]	GRinf, [5]
in vitro model: butyrate, time point: constant (~7 days, model-specific)	0.117	0.936	0.216	0.25	-0.0602
in vitro model: butyrate, time point: terminal (~4-5 doublings, model-specific)	0.104	0.979	0.0822	0.348	-0.0537
in vitro model: cholesterol 0.05 mM, time point: constant (~7 days, model-specific)	0.113	0.573	0.4	–	0.303
in vitro model: cholesterol 0.05 mM, time point: terminal (~4-5 doublings, model-specific)	0.0926	0.867	1.24	2.57	0.0118
in vitro model: cholesterol-high 0.2 mM, time point: constant (~7 days, model-specific)	0.0989	0.907	0.773	2.49	-0.497
in vitro model: cholesterol-high 0.2 mM, time point: terminal (~4-5 doublings, model-specific)	0.0908	1	1.01	0.724	-0.955
in vitro model: dormancy (butyrate + nitrate, low O2), time point: constant (~7 days, model-specific)	0.0883	0.893	0.2	-0.494	0.194
in vitro model: dormancy (butyrate + nitrate, low O2), time point: terminal (~4-5 doublings, model-specific)	0.062	0.97	0.0425	0.45	-0.059
in vitro model: standard 7H9 glycerol, time point: constant = terminal	0.103	0.935	-0.376	-0.394	0.00747
in vitro model: valerate, time point: constant (~7 days, model-specific)	0.119	0.907	0.421	–	-0.0677
in vitro model: valerate, time point: terminal (~4-5 doublings, model-specific)	0.0808	0.955	0.569	1.43	0.00769
